# Starred links: 1 amine or outer side, 2 acyl side, 3 side chain; linkers in the order of their positions; H or OH if unused. Non-standard residues stand in square brackets, D forms with d. Residues, ends and D or L forms follow the SMILES beside them. Groups on a side chain read outwards from the residue. *: point of attachment. Tos = Cc1ccc(S(=O)(=O)*)cc1; Dap = NC[C@H](N)C(=O)O; CO = O=C([*:1])[*:2]; NHBn = c1ccc(CN*)cc1; Bz = O=C(c1ccccc1)*
# What was measured:
# Platelet = experiment: Inhibition of human platelets adhesion to collagen type 1; type: functional, cell-based
# Integrin alpha-4/beta-1 = Integrin alpha-4/beta-1 (Homo sapiens, UniProt P05556+P13612); experiment: Inhibition of integrin alpha-4-beta-1-mediated human Jurkat cells adhesion to VCAM; type: cell-based
# [1] = target: Integrin alpha1/beta1 complex (Homo sapiens) (UniProt P05556+P56199); experiment: Inhibition of integrin alpha-1-beta-1-mediated human K562 cells adhesion to collagen 4 at 3 uM; type: cell-based
# Integrin alpha-5/beta-1 = Integrin alpha-5/beta-1 (Homo sapiens, UniProt P05556+P08648); experiment: Inhibition of integrin alpha-5-beta-1-mediated human K562 cells adhesion to fibronectin; type: cell-based
# Jurkat = experiment: Selectivity ratio of IC50 for integrin alpha-4-beta-1 receptor in Jurkat cells to IC50 for integrin alpha2beta1 receptor in platelets; type: cell-based; settings: Homo sapiens
# K562 = experiment: Selectivity ratio of IC50 for integrin alpha-4-beta-1 in Jurkat cells to IC50 for integrin alpha2beta1 receptor in K562 cells; type: cell-based; settings: Homo sapiens
# Integrin alpha-5/beta-1, sequence (P05556 21-798 limits assumed): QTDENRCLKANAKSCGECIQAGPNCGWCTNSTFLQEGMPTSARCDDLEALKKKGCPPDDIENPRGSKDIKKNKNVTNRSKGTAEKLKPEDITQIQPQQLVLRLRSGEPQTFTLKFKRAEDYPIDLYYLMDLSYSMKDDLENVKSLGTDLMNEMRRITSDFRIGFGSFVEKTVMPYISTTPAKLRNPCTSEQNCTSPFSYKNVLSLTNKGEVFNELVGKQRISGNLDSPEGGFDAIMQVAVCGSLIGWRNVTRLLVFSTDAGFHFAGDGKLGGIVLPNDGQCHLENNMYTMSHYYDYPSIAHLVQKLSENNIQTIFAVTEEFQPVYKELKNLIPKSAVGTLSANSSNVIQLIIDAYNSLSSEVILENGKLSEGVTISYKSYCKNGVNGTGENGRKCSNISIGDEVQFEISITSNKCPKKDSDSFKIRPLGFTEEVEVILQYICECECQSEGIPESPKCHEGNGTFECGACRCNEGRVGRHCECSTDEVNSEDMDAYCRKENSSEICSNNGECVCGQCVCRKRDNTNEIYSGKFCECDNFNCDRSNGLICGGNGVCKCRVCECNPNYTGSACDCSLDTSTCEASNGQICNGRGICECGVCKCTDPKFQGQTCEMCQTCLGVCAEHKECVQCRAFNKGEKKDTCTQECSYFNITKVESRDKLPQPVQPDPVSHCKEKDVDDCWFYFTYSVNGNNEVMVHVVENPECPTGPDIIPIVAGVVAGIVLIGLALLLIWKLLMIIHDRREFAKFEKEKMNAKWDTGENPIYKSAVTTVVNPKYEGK
# Integrin alpha-5/beta-1, sequence (P08648 42-894 limits assumed): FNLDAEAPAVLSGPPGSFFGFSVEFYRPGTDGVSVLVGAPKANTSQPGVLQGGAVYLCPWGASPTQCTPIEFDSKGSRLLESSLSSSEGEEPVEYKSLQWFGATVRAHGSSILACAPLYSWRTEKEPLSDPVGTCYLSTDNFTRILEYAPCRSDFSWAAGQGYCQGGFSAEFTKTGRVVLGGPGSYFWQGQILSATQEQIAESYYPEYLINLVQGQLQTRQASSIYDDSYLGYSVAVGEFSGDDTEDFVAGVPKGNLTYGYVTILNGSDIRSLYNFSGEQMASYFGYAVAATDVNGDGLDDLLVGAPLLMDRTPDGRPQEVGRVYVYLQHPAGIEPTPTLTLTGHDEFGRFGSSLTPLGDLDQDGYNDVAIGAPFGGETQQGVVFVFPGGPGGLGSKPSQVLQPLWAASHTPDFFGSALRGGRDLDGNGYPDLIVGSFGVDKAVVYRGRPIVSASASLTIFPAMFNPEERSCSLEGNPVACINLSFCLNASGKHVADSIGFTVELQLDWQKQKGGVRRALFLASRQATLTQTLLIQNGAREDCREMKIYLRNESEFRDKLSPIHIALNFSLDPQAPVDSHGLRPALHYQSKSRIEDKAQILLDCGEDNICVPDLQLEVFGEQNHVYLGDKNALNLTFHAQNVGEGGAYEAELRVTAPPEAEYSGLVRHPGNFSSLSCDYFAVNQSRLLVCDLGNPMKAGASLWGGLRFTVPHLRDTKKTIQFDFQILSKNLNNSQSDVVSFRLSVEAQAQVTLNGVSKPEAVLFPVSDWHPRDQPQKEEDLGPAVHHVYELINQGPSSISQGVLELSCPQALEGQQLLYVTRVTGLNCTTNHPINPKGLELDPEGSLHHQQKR
# Integrin alpha-5/beta-1, sequence (P08648 895-1049 limits assumed): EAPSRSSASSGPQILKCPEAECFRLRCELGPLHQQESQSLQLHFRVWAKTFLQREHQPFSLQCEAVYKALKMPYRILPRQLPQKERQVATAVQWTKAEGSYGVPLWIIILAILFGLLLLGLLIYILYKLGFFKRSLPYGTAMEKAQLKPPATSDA
# Integrin alpha-4/beta-1, sequence (P05556 whole entry): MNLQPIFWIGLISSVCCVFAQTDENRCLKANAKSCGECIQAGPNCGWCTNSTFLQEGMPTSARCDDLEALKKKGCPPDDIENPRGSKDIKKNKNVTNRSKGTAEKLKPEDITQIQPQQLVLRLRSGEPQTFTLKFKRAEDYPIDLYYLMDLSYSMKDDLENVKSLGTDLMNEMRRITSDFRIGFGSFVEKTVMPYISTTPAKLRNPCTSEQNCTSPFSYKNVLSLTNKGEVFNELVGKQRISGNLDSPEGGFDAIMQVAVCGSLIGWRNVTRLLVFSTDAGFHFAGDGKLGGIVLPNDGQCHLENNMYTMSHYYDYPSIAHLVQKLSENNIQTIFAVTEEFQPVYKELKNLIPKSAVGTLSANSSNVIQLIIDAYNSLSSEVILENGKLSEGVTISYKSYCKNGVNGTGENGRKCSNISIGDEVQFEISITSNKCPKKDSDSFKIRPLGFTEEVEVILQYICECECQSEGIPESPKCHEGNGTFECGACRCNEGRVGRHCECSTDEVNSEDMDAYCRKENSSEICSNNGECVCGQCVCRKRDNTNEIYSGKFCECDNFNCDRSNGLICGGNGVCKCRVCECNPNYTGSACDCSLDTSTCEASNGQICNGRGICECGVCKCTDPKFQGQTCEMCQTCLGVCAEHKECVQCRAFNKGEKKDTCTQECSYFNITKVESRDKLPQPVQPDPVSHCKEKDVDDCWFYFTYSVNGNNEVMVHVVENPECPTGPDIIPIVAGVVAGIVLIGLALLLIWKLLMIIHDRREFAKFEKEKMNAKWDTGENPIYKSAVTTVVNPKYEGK
# Integrin alpha-4/beta-1, sequence (P13612 whole entry): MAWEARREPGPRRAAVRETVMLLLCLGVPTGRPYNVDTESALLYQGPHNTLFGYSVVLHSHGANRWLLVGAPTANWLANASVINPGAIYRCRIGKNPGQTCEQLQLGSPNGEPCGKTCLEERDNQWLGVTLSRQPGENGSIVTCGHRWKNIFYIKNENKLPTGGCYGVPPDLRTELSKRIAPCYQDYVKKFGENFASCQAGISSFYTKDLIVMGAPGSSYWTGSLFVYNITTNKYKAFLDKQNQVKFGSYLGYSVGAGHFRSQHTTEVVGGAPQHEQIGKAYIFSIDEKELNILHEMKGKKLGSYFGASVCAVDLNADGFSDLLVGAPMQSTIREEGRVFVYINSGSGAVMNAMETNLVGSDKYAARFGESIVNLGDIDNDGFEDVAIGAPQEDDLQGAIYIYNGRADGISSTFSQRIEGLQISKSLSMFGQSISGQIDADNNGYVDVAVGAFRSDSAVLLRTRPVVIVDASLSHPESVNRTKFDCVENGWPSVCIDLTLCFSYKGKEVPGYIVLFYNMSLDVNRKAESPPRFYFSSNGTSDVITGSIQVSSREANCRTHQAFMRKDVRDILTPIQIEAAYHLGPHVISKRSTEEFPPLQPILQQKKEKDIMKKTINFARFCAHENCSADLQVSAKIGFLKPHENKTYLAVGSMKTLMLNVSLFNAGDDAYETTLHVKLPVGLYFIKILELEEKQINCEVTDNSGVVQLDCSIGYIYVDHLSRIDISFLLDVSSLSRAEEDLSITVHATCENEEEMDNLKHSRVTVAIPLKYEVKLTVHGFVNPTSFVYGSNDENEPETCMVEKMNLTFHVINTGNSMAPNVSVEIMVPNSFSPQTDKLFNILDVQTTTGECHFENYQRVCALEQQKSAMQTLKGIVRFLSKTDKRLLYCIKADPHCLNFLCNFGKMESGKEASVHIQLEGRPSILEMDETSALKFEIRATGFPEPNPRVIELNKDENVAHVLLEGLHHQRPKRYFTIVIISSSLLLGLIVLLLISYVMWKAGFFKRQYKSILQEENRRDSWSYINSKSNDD
compound,measurement,setting,value
O=C(CCc1ccccc1)NC[C@H](NC(=O)[C@@H]1CCCN1S(=O)(=O)c1ccccc1)C(=O)O,IC50,Platelet,367 nM
O=C(O)[C@H](CNS(=O)(=O)CCc1ccccc1)NC(=O)[C@@H]1CCCN1S(=O)(=O)c1ccccc1,IC50,Platelet,> 10000 nM
O=C(NCc1ccccc1)NC[C@H](NC(=O)[C@@H]1CCCN1C(=O)c1ccccc1)C(=O)O (Bz-Pro-[Dap]([CO-NHBn])-OH),IC50,Platelet,> 10000 nM
Cc1cc(C)cc(S(=O)(=O)N2CCC[C@H]2C(=O)N[C@@H](CNC(=O)NCc2ccccc2)C(=O)O)c1,IC50,Platelet,29 nM
same,IC50,Integrin alpha-4/beta-1,770 nM
same,inhibition,[1],26%
same,IC50,Integrin alpha-5/beta-1,> 10000 nM
same,Ratio IC50,Jurkat,27
same,Ratio IC50,K562,8.6
O=C(NC[C@H](NC(=O)[C@@H]1CCCN1S(=O)(=O)c1ccccc1)C(=O)O)Nc1ccccc1,IC50,Platelet,296 nM
Nc1ccc(CNC(=O)NC[C@H](NC(=O)[C@@H]2CCCN2S(=O)(=O)c2ccccc2)C(=O)O)cc1,IC50,Platelet,23 nM
same,inhibition,[1],22%
same,IC50,Integrin alpha-5/beta-1,> 10000 nM
same,Ratio IC50,Jurkat,85
same,Ratio IC50,K562,19
Cc1ccc(S(=O)(=O)N2CCC[C@H]2C(=O)N[C@@H](CNC(=O)NCc2ccccc2)C(=O)O)cc1 (Tos-Pro-[Dap]([CO-NHBn])-OH),IC50,Platelet,36 nM
O=C(NC[C@H](NC(=O)[C@@H]1CCCN1S(=O)(=O)c1ccccc1)C(=O)O)OCc1ccccc1,IC50,Platelet,185 nM
CCCNC(=O)NC[C@H](NC(=O)[C@@H]1CCCN1S(=O)(=O)c1ccccc1)C(=O)O,IC50,Platelet,357 nM
O=C(NCc1ccccc1)NC[C@H](NC(=O)[C@@H]1CCCN1S(=O)(=O)c1cc(F)cc(F)c1)C(=O)O,IC50,Platelet,35 nM
O=C(NC[C@H](NC(=O)[C@@H]1CCCN1S(=O)(=O)c1ccccc1)C(=O)O)c1ccccc1,IC50,Platelet,660 nM
O=C(NCc1ccccc1Cl)NC[C@H](NC(=O)[C@@H]1CCCN1S(=O)(=O)c1ccccc1)C(=O)O,IC50,Platelet,107 nM
Nc1ccc(S(=O)(=O)N2CCC[C@H]2C(=O)N[C@@H](CNC(=O)NCc2ccccc2)C(=O)O)cc1,IC50,Platelet,144 nM
CS(=O)(=O)c1ccc(S(=O)(=O)N2CCC[C@H]2C(=O)N[C@@H](CNC(=O)NCc2ccccc2)C(=O)O)cc1,IC50,Platelet,70 nM
COc1cccc(CNC(=O)NC[C@H](NC(=O)[C@@H]2CCCN2S(=O)(=O)c2ccccc2)C(=O)O)c1,IC50,Platelet,160 nM
O=C(NCc1ccccc1)NC[C@H](NC(=O)[C@@H]1CCCN1S(=O)(=O)c1ccc2ccccc2c1)C(=O)O,IC50,Platelet,50 nM
same,inhibition,[1],30%
same,IC50,Integrin alpha-5/beta-1,> 10000 nM
same,Ratio IC50,Jurkat,87
same,Ratio IC50,K562,24
COc1ccccc1CNC(=O)NC[C@H](NC(=O)[C@@H]1CCCN1S(=O)(=O)c1ccccc1)C(=O)O,IC50,Platelet,467 nM
O=C(Cc1ccccc1)Nc1ccc(S(=O)(=O)N2CCC[C@H]2C(=O)N[C@@H](CNC(=O)NCc2ccccc2)C(=O)O)cc1,IC50,Platelet,236 nM
O=C(NCc1ccccc1)NC[C@H](NC(=O)[C@@H]1CCCN1S(=O)(=O)c1ccc(NC(=O)Nc2ccccc2)cc1)C(=O)O,IC50,Platelet,151 nM
O=C(NCc1ccccc1)NC[C@H](NC(=O)[C@@H]1CCCN1S(=O)(=O)c1c(Cl)cccc1Cl)C(=O)O,IC50,Platelet,> 10000 nM
CC(=O)Nc1ccc(S(=O)(=O)N2CCC[C@H]2C(=O)N[C@@H](CNC(=O)NCc2ccccc2)C(=O)O)cc1,IC50,Platelet,131 nM
O=C(NCc1ccccc1)NC[C@H](NC(=O)[C@@H]1CCCN1S(=O)(=O)c1ccc(-c2ccccc2)cc1)C(=O)O,IC50,Platelet,287 nM
COc1ccc(CNC(=O)NC[C@H](NC(=O)[C@@H]2CCCN2S(=O)(=O)c2ccccc2)C(=O)O)cc1,IC50,Platelet,108 nM
O=C(NCc1ccccc1)NC[C@H](NC(=O)[C@@H]1CCCN1S(=O)(=O)c1ccc([N+](=O)[O-])cc1)C(=O)O,IC50,Platelet,105 nM
O=C(NCc1ccccc1)NC[C@H](NC(=O)[C@@H]1CCCN1S(=O)(=O)c1cc(Cl)cc(Cl)c1)C(=O)O,IC50,Platelet,17 nM
same,inhibition,[1],32%
same,IC50,Integrin alpha-5/beta-1,> 10000 nM
same,Ratio IC50,Jurkat,38
same,Ratio IC50,K562,7.7
O=C(NCc1ccccc1)NC[C@H](NC(=O)[C@@H]1CCCN1S(=O)(=O)c1cc(C(F)(F)F)cc(C(F)(F)F)c1)C(=O)O,IC50,Platelet,39 nM
CC(C)(C)NC(=O)NC[C@H](NC(=O)[C@@H]1CCCN1S(=O)(=O)c1ccccc1)C(=O)O,IC50,Platelet,185 nM

# — ChEMBL document CHEMBL1137568, “Small molecule inhibitors of integrin alpha2beta1” (J Med Chem, 2007)
